Experiments:
[1] = target: T1, Alpha-1A adrenergic receptor (Homo sapiens, UniProt P35348); experiment: Ability to displace beta ([125I]-iodo-4-hydroxyphenyl)-ethylaminomethyl tetralone from human cloned Alpha-1a adrenergic receptor stably expressed in Chinese Hamster Ovary (CHO) cells; type: cell-based
T1 sequence (P35348 whole entry): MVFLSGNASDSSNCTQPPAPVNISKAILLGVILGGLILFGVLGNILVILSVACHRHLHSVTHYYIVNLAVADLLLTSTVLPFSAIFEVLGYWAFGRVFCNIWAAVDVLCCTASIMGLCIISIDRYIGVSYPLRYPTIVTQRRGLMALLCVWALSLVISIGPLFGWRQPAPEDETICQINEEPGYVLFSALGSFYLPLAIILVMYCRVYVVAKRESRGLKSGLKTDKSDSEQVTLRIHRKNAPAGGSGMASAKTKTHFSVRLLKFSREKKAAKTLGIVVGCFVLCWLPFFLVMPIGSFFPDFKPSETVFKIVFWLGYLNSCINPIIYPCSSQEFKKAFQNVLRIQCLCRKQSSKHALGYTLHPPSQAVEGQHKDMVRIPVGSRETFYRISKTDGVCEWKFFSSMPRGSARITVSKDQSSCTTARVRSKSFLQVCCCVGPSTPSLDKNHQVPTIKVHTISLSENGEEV

[2] = target: T2, Alpha-1D adrenergic receptor (Homo sapiens, UniProt P25100); experiment: Ability to displace beta ([125I]-iodo-4-hydroxyphenyl) ethylamino methyl tetralone from human cloned Alpha-1d adrenergic receptor stably expressed in HEK cells.; type: cell-based, HEK293
T2 sequence (P25100 whole entry): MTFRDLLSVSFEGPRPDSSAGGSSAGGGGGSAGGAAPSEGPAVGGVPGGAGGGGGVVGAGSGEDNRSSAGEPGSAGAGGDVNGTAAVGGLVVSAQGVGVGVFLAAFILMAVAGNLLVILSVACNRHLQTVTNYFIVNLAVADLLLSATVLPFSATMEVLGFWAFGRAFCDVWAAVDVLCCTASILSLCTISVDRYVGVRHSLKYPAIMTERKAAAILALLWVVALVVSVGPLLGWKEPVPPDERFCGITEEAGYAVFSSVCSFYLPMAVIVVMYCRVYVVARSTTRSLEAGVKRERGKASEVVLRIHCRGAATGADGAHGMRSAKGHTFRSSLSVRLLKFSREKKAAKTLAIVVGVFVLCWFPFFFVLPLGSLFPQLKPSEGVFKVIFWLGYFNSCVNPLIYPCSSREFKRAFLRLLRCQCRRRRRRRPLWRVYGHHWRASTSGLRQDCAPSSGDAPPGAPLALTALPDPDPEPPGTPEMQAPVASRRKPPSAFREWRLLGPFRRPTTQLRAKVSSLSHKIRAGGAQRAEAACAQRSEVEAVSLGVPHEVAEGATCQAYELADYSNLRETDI

[3] = target: T3, Alpha-1B adrenergic receptor (Homo sapiens, UniProt P35368); experiment: Ability to displace beta ([125I]-iodo-4-hydroxyphenyl)-ethylamino methyl tetralone from human cloned Alpha-1b adrenergic receptor stably expressed in LM cells.; type: cell-based
T3 sequence (P35368 whole entry): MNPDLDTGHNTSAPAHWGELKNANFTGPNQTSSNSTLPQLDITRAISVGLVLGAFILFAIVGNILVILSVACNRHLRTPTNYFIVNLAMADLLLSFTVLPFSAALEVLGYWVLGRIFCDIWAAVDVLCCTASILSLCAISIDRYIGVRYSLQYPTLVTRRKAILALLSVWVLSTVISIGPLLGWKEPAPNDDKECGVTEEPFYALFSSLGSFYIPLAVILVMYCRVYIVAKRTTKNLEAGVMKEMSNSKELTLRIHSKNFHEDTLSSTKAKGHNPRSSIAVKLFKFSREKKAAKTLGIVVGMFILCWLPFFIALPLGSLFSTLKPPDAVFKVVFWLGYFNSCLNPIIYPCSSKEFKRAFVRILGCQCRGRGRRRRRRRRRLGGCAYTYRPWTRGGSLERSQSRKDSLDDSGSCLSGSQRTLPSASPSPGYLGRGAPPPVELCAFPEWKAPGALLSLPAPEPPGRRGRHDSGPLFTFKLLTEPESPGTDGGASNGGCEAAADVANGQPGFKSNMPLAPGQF

Canis familiaris [4] = experiment: In vivo inhibitory activity against […]-induced increase in diastolic blood pressure (DBP) in dog; type: functional, Canis lupus familiaris, Artery
Canis familiaris [5] = experiment: In vivo inhibitory activity against […]-induced increase in urethral pressure (IUP) in dog; type: functional, Canis lupus familiaris, Urethra
[6] = target: T4, Adrenergic receptors; alpha-1 A & B (Homo sapiens) (UniProt P35348+P35368); experiment: Selectivity towards alpha-1a over alpha-1b receptor; 97x; type: protein assay
[7] = target: T1, Alpha-1A adrenergic receptor; experiment: Ability to displace beta ([125I]-iodo-4-hydroxyphenyl)-ethylamino methyl tetralone from human cloned Alpha-1a adrenergic receptor stably expressed in Chinese Hamster Ovary (CHO) cells; type: cell-based
[8] = target: T5, Alpha adrenergic receptor (1a and 1d) (Homo sapiens) (UniProt P35348+P25100); experiment: Selectivity towards Alpha-1A over alpha1d receptor; 208x; type: protein assay
[9] = target: T1, Alpha-1A adrenergic receptor; experiment: Ability to displace beta ([125I]-iodo-4-hydroxyphenyl)-ethylaminomethyl tetralone from human cloned Alpha-1a adrenergic receptor stably expressed in CHO cells; type: cell-based
[10] = target: T5, Alpha adrenergic receptor (1a and 1d) (Homo sapiens); experiment: Selectivity towards alpha-1a over alpha1d receptor; 5.5x; type: protein assay
[11] = target: T4, Adrenergic receptors; alpha-1 A & B (Homo sapiens); experiment: Selectivity towards Alpha-1A over alpha-1b receptor; 3.3x; type: protein assay
[12] = target: T2, Alpha-1D adrenergic receptor; experiment: Ability to displace beta ([125I]-iodo-4-hydroxyphenyl)-ethylamino methyl tetralone from human cloned Alpha-1d adrenergic receptor stably expressed in COS-7 cells; type: cell-based
[13] = target: T1, Alpha-1A adrenergic receptor; experiment: Ability to displace beta ([125I]-iodo-4-hydroxyphenyl)-ethylaminomethyl tetralone from human cloned Alpha-1a adrenergic receptor stably expressed in COS-7 cells; type: cell-based
[14] = target: T3, Alpha-1B adrenergic receptor; experiment: Ability to displace beta ([125I]-iodo-4-hydroxyphenyl)-ethylamino methyl tetralone from human cloned Alpha-1b adrenergic receptor stably expressed in COS-7 cells; type: cell-based
[15] = target: T4, Adrenergic receptors; alpha-1 A & B (Homo sapiens); experiment: Selectivity towards Alpha-1A over alpha-1b receptor; 5x; type: protein assay
[16] = target: T5, Alpha adrenergic receptor (1a and 1d) (Homo sapiens); experiment: Selectivity towards Alpha-1A over alpha1d receptor; 11x; type: protein assay
[17] = target: T5, Alpha adrenergic receptor (1a and 1d) (Homo sapiens); experiment: Selectivity towards Alpha-1A over alpha-1d receptor; 266x; type: protein assay
[18] = target: T4, Adrenergic receptors; alpha-1 A & B (Homo sapiens); experiment: Selectivity towards Alpha-1A over alpha-1b receptor; 188x; type: protein assay
[19] = target: T1, Alpha-1A adrenergic receptor; experiment: Ability to displace beta ([125I]-iodo-4-hydroxyphenyl)-ethylaminomethyl tetralone from human cloned Alpha-1a adrenergic receptor stably expressed in CHO cells
[20] = target: T5, Alpha adrenergic receptor (1a and 1d) (Homo sapiens); experiment: Selectivity towards Alpha-1A over alpha-1d receptor; 56x; type: protein assay
[21] = target: T4, Adrenergic receptors; alpha-1 A & B (Homo sapiens); experiment: Selectivity towards Alpha-1A over alpha-1b receptor; 11x; type: protein assay

With `COc1ccc2c(c1)C(=O)N(CCCCN1CCC(n3c(=O)oc4ccccc43)CC1)S2(=O)=O` the Ki [1] was 0.064 nM, the Ki [2] was 76 nM and the Ki [3] was 15 nM.

`O=C1c2cc(Cl)ccc2S(=O)(=O)N1CCCCN1CCC(n2c(=O)oc3ccccc32)CC1` gave a Kb (Canis familiaris [4]) of 156 µg/kg, a Kb (Canis familiaris [5]) of 5.5 µg/kg and a Ki [2] of 85 nM.

In the case of `Cc1ccc2c(c1)oc(=O)n2C1CCN(CCCCN2C(=O)c3ccccc3S2(=O)=O)CC1`, the Selectivity [6] is reported as 97, the Ki [7] is reported as 3.1 nM and the Ki [2] is reported as 644 nM. For the same molecule, the Selectivity [8] was 208 and the Ki [3] was 301 nM.

Molecule `O=C1c2ccc([N+](=O)[O-])cc2S(=O)(=O)N1CCCCN1CCC(n2c(=O)oc3ccccc32)CC1` has a Ki [9] of 0.16 nM, a Ki [2] of 75 nM and a Ki [3] of 75 nM.

Molecule `O=C1c2ccccc2S(=O)(=O)N1CCCCN1CCC(n2c(=O)oc3cc(F)ccc32)CC1` has a Ki [7] of 0.084 nM, a Ki [2] of 25 nM and a Ki [3] of 7.3 nM.

Work on `O=C1c2ccccc2C(=O)N1CCCCN1CCC(n2c(=O)[nH]c3ccccc32)CC1` yielded a Ki [7] of 0.28 nM, a Ki [2] of 16 nM and a Ki [3] of 3 nM.

`COc1ccc2c(c1)oc(=O)n2C1CCN(CCCCN2C(=O)c3ccccc3S2(=O)=O)CC1` gave a Selectivity [10] of 5.5, a Ki [7] of 499 nM and a Ki [2] of 2750 nM. The Selectivity [11] was 3.3 and the Ki [3] was 1650 nM.

`CSc1ccc2c(c1)C(=O)N(CCCCN1CCC(n3c(=O)oc4ccccc43)CC1)S2(=O)=O` showed a Ki [9] of 0.057 nM, a Ki [2] of 59 nM and a Ki [3] of 10 nM.

For `CS(=O)(=O)c1ccc2c(c1)S(=O)(=O)N(CCCCN1CCC(n3c(=O)oc4ccccc43)CC1)C2=O`, the Ki [12] was 210 nM, the Ki [13] was 2.4 nM and the Ki [14] was 6.8 nM.

With `Cc1cccc2oc(=O)n(C3CCN(CCCCN4C(=O)c5ccccc5S4(=O)=O)CC3)c12` the Ki [7] was 147 nM, the Ki [2] was 1020 nM and the Ki [3] was 1150 nM.

`COc1cc2nc(N3CCN(C(=O)C4CCCO4)CC3)nc(N)c2cc1OC` (stereo unspecified) [TERAZOSIN] showed a Kb (Canis familiaris [4]) of 17 µg/kg and a Kb (Canis familiaris [5]) of 16 µg/kg.

Work on `Cc1cc(C)c2oc(=O)n(C3CCN(CCCCN4C(=O)c5ccccc5S4(=O)=O)CC3)c2c1` yielded a Selectivity [15] of 5, a Ki [7] of 20 nM and a Selectivity [16] of 11. It also gave a Ki [2] of 224 nM and a Ki [3] of 108 nM.

For `O=C1c2ccccc2S(=O)(=O)N1CCCCN1CCC(n2c(=O)oc3cc4c(cc32)CCCC4)CC1`, the Ki [7] was 90 nM, the Ki [2] was 894 nM and the Ki [3] was 676 nM.

Molecule `Cc1ccc2c(c1)C(=O)N(CCCCN1CCC(n3c(=O)oc4ccccc43)CC1)S2(=O)=O` has a Ki [1] of 0.099 nM, a Ki [2] of 73 nM and a Ki [3] of 20 nM.

In the case of `COC(=O)c1ccc2c(c1)oc(=O)n2C1CCN(CCCCN2C(=O)c3ccccc3S2(=O)=O)CC1`, the Ki [7] is reported as 1030 nM, the Ki [2] is reported as 3430 nM and the Ki [3] is reported as 1960 nM.

Work on `O=C1c2cc(F)ccc2S(=O)(=O)N1CCCCN1CCC(n2c(=O)oc3ccccc32)CC1` yielded a Selectivity [17] of 266, a Selectivity [18] of 188 and a Ki [19] of 0.27 nM. For the same molecule, the Ki [2] was 71 nM and the Ki [3] was 50 nM.

For `O=C1c2cc([N+](=O)[O-])ccc2S(=O)(=O)N1CCCCN1CCC(n2c(=O)oc3ccccc32)CC1`, the Ki [7] was 0.13 nM, the Ki [2] was 351 nM and the Ki [3] was 133 nM.

`Cc1ccc2oc(=O)n(C3CCN(CCCCN4C(=O)c5ccccc5S4(=O)=O)CC3)c2c1` gave a Ki [7] of 1.2 nM, a Ki [2] of 136 nM and a Ki [3] of 37 nM.

Molecule `O=C1c2ccccc2S(=O)(=O)N1CCCCN1CCC(n2c(=O)oc3ccccc32)CC1` has a Ki [7] of 0.12 nM, a Ki [2] of 41 nM and a Ki [3] of 14 nM.

Work on `O=C1c2ccccc2C(=O)N1CCCCN1CCC(n2c(O)nc3ccccc32)CC1` yielded a Selectivity [20] of 56 and a Selectivity [21] of 11.

Reference: ChEMBL document CHEMBL1131394, “Design and synthesis of N-alkylated saccharins as selective alpha-1a adrenergic receptor antagonists” (Bioorg Med Chem Lett, 1998)
